The results in this text go back to patent US8487107B2, “Biphenyl compounds useful as muscarinic receptor antagonists” (Theravance, Inc., priority 2005, dated 2013).

Series [1] can be described thus: Dynamic moisture sorption (DMS) assessment. Type of series: physicochemical. As to the method: A dynamic moisture sorption (DMS) assessment (also known as a moisture sorption-desorption profile) was performed for samples of the crystalline diacetate salt using a VTI atmospheric microbalance, SGA-100 system (VTI Corp., Hialeah, Fla. 33016). A sample size of approximately 10 mg was used and the humidity was set at the ambient value at the start of the analysis. A typical DMS analysis consisted of three scans: ambient to 2% relative humidity (RH), 2% RH to 90% RH, 90% RH to 5% RH at a scan rate of 5% RH/step. The mass was measured every two minutes and the RH was changed to the next value (+/−5% RH) when the mass of the sample was stable to within 0.01% for 5 consecutive points.

Series [2] in a line: DSC thermal analysis (thermal decomposition). Type of series: physicochemical. Conditions: DSC trace, heating ramp 10° C./min. As for the experimental part: DSC was performed using a TA Instruments Model Q-10 module with a Thermal Analyst controller, and data were collected and analyzed using TA Instruments Thermal Solutions software. A sample of about 1 mg of the crystalline diacetate salt was accurately weighed into an aluminum pan with lid, and evaluated using a linear heating ramp of 10° C./min from ambient temperature to approximately 300° C. The DSC cell was purged with dry nitrogen during use. A representative DSC trace for this salt is shown in FIG. 2 and depicts one transition at about 114° C., no thermal decomposition below about 160° C., and maximum endothermic heat flow at about 112° C.
In general terms: Differential scanning calorimetry records heat flow against a reference as temperature is scanned.

Counter-ions that a name gives are not always drawn. A value given as a limit tells only on which side of the number the result lay.

For `CN(CCN1CCC(OC(=O)Nc2ccccc2-c2ccccc2)CC1)C(=O)c1cccc(C(=O)NCCNCc2ccc(O)cc2)c1` [crystalline dipropionate salt, Biphenyl-2-ylcarbamic Acid 1-[2-({3-[2-(4-Hydroxybenzylamino)ethylcarbamoyl]benzoyl}methylamino)ethyl]piperidin-4-yl Ester], in series [1], the “weight gain when exposed to up to 90% RH (DMS, reversible sorption/desorption profile)” value was “less than 11%”. In series [2], the “no thermal decomposition below (DSC)” value is ≥ 150 °C.
The corresponding values for `CN(CCN1CCC(OC(=O)Nc2ccccc2-c2ccccc2)CC1)C(=O)c1cccc(C(=O)NCCNCc2ccc(O)cc2)c1` [crystalline monooxalate salt, Biphenyl-2-ylcarbamic Acid 1-[2-({3-[2-(4-Hydroxybenzylamino)ethylcarbamoyl]benzoyl}methylamino)ethyl]piperidin-4-yl Ester] are “less than 14%” and ≥ 150 °C.
For `CN(CCN1CCC(OC(=O)Nc2ccccc2-c2ccccc2)CC1)C(=O)c1cccc(C(=O)NCCNCc2ccc(O)cc2)c1` [crystalline diacetate salt, biphenyl-2-ylcarbamic acid 1-[2-({3-[2-(4-hydroxybenzylamino)ethylcarbamoyl]benzoyl}methylamino)ethyl]piperidin-4-yl ester] the same measures were “less than 18%” and ≥ 160 °C.
